Experimental data published in patent US8507527B2, “Method for stabilizing anti-dementia drug” (EISAI R & D Management Co., Ltd., priority 2004, dated 2013).

Assay: pH of aqueous solutions or suspensions of additives, polymers and donepezil hydrochloride
Format: physicochemical
Conditions: for pH OF ADDITIVES (2.5% AQUEOUS SOLUTIONS OR SUSPENSIONS): additive of the example alone, dissolved or suspended in purified water at 2.5%

Row | Compound | pH OF ADDITIVES (2.5% AQUEOUS SOLUTIONS OR SUSPENSIONS) | pH (2.5% aqueous solution or suspension)
1 | O=C1O[C@H]([C@@H](O)CO)C(O)=C1O [ASCORBIC ACID, ascorbic acid] | 2.6 | –
2 | N[C@@H](CC(=O)O)C(=O)O [ASPARTIC ACID, aspartic acid] | 3.0 | –
3 | O=C(O)CC(O)(CC(=O)O)C(=O)O [CITRIC ACID, citric acid] | 2.0 | –
4 | Cl.N[C@@H](CS)C(=O)O [CYSTEINE HYDROCHLORIDE, cysteine hydrochloride] | 1.5 | –
5 | N[C@@H](CS)C(=O)O [CYSTEINE, cysteine] | 5.1 | –
6 | O=C([O-])CC(O)(CC(=O)[O-])C(=O)O.[Na+].[Na+] [DISODIUM CITRATE, disodium citrate] | 5.2 | –
7 | O=C([O-])CN(CCN(CC(=O)[O-])CC(=O)O)CC(=O)O.[Na+].[Na+] [DISODIUM EDETATE, disodium edetate] | 4.5 | –
8 | OC[C@H]1O[C@@H](O[C@H]2[C@H](O)[C@@H](O)C(O)O[C@@H]2CO)[C@H](O)[C@@H](O)[C@H]1O (some centres unmarked) [FlowLac100, LACTOSE] | – | 5.5
9 | NCC(=O)O [GLYCINE, glycine] | 6.2 | –
10 | CSCC[C@H](N)C(=O)O [METHIONINE, methionine] | 5.9 | –
11 | O=C1O[C@H]([C@@H](O)CO)C([O-])=C1O.[Na+] [SODIUM ASCORBATE, sodium ascorbate] | 7.5 | –
12 | N[C@@H](CC(=O)[O-])C(=O)[O-].[Na+].[Na+] [SODIUM ASPARTATE, sodium aspartate] | 6.8 | –
13 | O=C([O-])CC(O)(CC(=O)[O-])C(=O)[O-].[Na+].[Na+].[Na+] [SODIUM CITRATE, sodium citrate] | 8.3 | –
14 | sodium dihydrogen citrate [SODIUM […]] | 3.7 | –
